Assay results: ChEMBL document CHEMBL4507265 (2021)

How the values were obtained:
[1] = target: Phosphatidylinositol 3-kinase catalytic subunit type 3 (Homo sapiens) (UniProt Q8NEB9); conditions: Compound concentration 1000.0 nM
[2] = target: Mitogen-activated protein kinase kinase kinase kinase 3 (Homo sapiens) (UniProt Q8IVH8); conditions: Compound concentration 1000.0 nM
[3] = target: Dual specificity tyrosine-phosphorylation-regulated kinase 2 (Homo sapiens) (UniProt Q92630); conditions: Compound concentration 1000.0 nM
[4] = target: Serine/threonine-protein kinase NIM1 (Homo sapiens) (UniProt Q8IY84); conditions: Compound concentration 1000.0 nM
Rattus norvegicus = organism: Rattus norvegicus; conditions: Compound concentration 10.0 uM
[5] = target: Serine/threonine-protein kinase 4 (Homo sapiens) (UniProt Q13043); conditions: Compound concentration 1000.0 nM
[6] = target: Cyclin-dependent kinase 3 (Homo sapiens) (UniProt Q00526); conditions: Compound concentration 1000.0 nM
[7] = test system: Epidermal growth factor receptor (Homo sapiens), P00533 [UNDEFINED MUTATION]; conditions: Compound concentration 1000.0 nM
[8] = target: Serine/threonine-protein kinase 10 (Homo sapiens) (UniProt O94804); conditions: Compound concentration 1000.0 nM
[9] = target: Histamine H1 receptor (Homo sapiens) (UniProt P35367); conditions: Compound concentration 10.0 uM
[10] = target: Protein kinase C eta type (Homo sapiens) (UniProt P24723); conditions: Compound concentration 1000.0 nM
[11] = test system: ALK tyrosine kinase receptor (Homo sapiens), Q9UM73 [C1156Y]; conditions: Compound concentration 1000.0 nM
[12] = target: Cytoplasmic tyrosine-protein kinase BMX (Homo sapiens) (UniProt P51813); conditions: Compound concentration 1000.0 nM
[13] = target: Tyrosine-protein kinase JAK1 (Homo sapiens) (UniProt P23458); conditions: Compound concentration 1000.0 nM
[14] = target: Dual specificity tyrosine-phosphorylation-regulated kinase 1A (Homo sapiens) (UniProt Q13627); conditions: Compound concentration 1000.0 nM
[15] = target: Phosphatidylinositol 4,5-bisphosphate 3-kinase catalytic subunit gamma isoform (Homo sapiens) (UniProt P48736); conditions: Compound concentration 1000.0 nM
[16] = target: Tyrosine-protein kinase FRK (Homo sapiens) (UniProt P42685); conditions: Compound concentration 1000.0 nM
[17] = target: Phosphatidylinositol 5-phosphate 4-kinase type-2 gamma (Homo sapiens) (UniProt Q8TBX8); conditions: Compound concentration 1000.0 nM
[18] = target: Testis-specific serine/threonine-protein kinase 1 (Homo sapiens) (UniProt Q9BXA7); conditions: Compound concentration 1000.0 nM
[19] = target: Non-receptor tyrosine-protein kinase TYK2 (Homo sapiens) (UniProt P29597); conditions: Compound concentration 1000.0 nM
[20] = target: Ephrin type-A receptor 1 (Homo sapiens) (UniProt P21709); conditions: Compound concentration 1000.0 nM
[21] = target: Angiopoietin-1 receptor (Homo sapiens) (UniProt Q02763); conditions: Compound concentration 1000.0 nM
[22] = target: Rhodopsin kinase GRK1 (Homo sapiens) (UniProt Q15835); conditions: Compound concentration 1000.0 nM
[23] = target: Beta-1 adrenergic receptor (Homo sapiens) (UniProt P08588); conditions: Compound concentration 10.0 uM
[24] = target: LIM domain kinase 2 (Homo sapiens) (UniProt P53671); conditions: Compound concentration 1000.0 nM
[25] = target: Serine/threonine-protein kinase PAK 1 (Homo sapiens) (UniProt Q13153); conditions: Compound concentration 1000.0 nM
[26] = target: Tyrosine-protein kinase ZAP-70 (Homo sapiens) (UniProt P43403); conditions: Compound concentration 1000.0 nM
[27] = target: Dual specificity mitogen-activated protein kinase kinase 1 (Homo sapiens) (UniProt Q02750); conditions: Compound concentration 1000.0 nM
[28] = target: Mitogen-activated protein kinase kinase kinase 14 (Homo sapiens) (UniProt Q99558); conditions: Compound concentration 1000.0 nM
[29] = target: Homeodomain-interacting protein kinase 2 (Homo sapiens) (UniProt Q9H2X6); conditions: Compound concentration 1000.0 nM
[30] = target: Testis-specific serine/threonine-protein kinase 3 (Homo sapiens) (UniProt Q96PN8); conditions: Compound concentration 1000.0 nM
[31] = target: Cyclin-dependent kinase 17 (Homo sapiens) (UniProt Q00537); conditions: Compound concentration 1000.0 nM
[32] = target: Calcium/calmodulin-dependent protein kinase type II subunit beta (Homo sapiens) (UniProt Q13554); conditions: Compound concentration 1000.0 nM
[33] = target: MAP kinase-activated protein kinase 5 (Homo sapiens) (UniProt Q8IW41); conditions: Compound concentration 1000.0 nM
[34] = test system: Phosphatidylinositol 4,5-bisphosphate 3-kinase catalytic subunit alpha isoform (Homo sapiens), P42336 [H1047L]; conditions: Compound concentration 1000.0 nM
[35] = target: Serine/threonine-protein kinase tousled-like 2 (Homo sapiens) (UniProt Q86UE8); conditions: Compound concentration 1000.0 nM
[36] = target: Serine/threonine-protein kinase ICK (Homo sapiens) (UniProt Q9UPZ9); conditions: Compound concentration 1000.0 nM
[37] = target: Ribosomal protein S6 kinase alpha-1 (Homo sapiens) (UniProt Q15418); conditions: Compound concentration 1000.0 nM
[38] = target: Casein kinase II subunit alpha' (Homo sapiens) (UniProt P19784); conditions: Compound concentration 1000.0 nM
[39] = target: Calcium/calmodulin-dependent protein kinase type IV (Homo sapiens) (UniProt Q16566); conditions: Compound concentration 1000.0 nM
[40] = target: Ephrin type-B receptor 2 (Homo sapiens) (UniProt P29323); conditions: Compound concentration 1000.0 nM
[41] = target: Ephrin type-B receptor 6 (Homo sapiens) (UniProt O15197); conditions: Compound concentration 1000.0 nM
[42] = target: Phosphatidylinositol 4,5-bisphosphate 3-kinase catalytic subunit alpha isoform (Homo sapiens) (UniProt P42336); conditions: Compound concentration 1000.0 nM
[43] = target: Tyrosine-protein kinase TXK (Homo sapiens) (UniProt P42681); conditions: Compound concentration 1000.0 nM
[44] = target: Sigma intracellular receptor 2 (Homo sapiens, UniProt Q5BJF2); conditions: Compound concentration 10.0 uM

Testis-specific serine/threonine-protein kinase 1 (Homo sapiens), sequence (Q9BXA7 whole entry): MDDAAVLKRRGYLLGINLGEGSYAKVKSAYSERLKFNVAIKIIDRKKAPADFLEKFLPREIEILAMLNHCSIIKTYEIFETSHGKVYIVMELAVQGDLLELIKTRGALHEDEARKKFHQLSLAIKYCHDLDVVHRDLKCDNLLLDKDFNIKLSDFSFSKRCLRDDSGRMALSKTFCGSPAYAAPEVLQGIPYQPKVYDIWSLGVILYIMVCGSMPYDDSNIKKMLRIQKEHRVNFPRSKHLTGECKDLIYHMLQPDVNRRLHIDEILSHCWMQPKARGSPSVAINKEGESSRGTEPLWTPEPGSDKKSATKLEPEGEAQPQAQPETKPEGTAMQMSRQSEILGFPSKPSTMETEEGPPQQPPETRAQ
Serine/threonine-protein kinase NIM1 (Homo sapiens), sequence (Q8IY84 whole entry): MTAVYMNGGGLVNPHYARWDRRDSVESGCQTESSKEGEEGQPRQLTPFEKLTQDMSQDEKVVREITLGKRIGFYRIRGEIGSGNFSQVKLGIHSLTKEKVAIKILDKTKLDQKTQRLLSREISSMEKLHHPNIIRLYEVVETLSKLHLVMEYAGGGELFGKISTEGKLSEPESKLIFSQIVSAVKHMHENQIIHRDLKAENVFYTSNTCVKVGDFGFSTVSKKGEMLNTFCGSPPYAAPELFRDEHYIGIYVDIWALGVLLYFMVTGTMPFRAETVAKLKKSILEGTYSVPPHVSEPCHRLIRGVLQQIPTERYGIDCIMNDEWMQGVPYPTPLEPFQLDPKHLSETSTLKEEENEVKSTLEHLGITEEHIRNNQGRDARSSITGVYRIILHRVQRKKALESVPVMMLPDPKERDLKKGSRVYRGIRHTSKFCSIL
ALK tyrosine kinase receptor (Homo sapiens), Q9UM73 [C1156Y], sequence (Q9UM73 whole entry C1156Y, looked up): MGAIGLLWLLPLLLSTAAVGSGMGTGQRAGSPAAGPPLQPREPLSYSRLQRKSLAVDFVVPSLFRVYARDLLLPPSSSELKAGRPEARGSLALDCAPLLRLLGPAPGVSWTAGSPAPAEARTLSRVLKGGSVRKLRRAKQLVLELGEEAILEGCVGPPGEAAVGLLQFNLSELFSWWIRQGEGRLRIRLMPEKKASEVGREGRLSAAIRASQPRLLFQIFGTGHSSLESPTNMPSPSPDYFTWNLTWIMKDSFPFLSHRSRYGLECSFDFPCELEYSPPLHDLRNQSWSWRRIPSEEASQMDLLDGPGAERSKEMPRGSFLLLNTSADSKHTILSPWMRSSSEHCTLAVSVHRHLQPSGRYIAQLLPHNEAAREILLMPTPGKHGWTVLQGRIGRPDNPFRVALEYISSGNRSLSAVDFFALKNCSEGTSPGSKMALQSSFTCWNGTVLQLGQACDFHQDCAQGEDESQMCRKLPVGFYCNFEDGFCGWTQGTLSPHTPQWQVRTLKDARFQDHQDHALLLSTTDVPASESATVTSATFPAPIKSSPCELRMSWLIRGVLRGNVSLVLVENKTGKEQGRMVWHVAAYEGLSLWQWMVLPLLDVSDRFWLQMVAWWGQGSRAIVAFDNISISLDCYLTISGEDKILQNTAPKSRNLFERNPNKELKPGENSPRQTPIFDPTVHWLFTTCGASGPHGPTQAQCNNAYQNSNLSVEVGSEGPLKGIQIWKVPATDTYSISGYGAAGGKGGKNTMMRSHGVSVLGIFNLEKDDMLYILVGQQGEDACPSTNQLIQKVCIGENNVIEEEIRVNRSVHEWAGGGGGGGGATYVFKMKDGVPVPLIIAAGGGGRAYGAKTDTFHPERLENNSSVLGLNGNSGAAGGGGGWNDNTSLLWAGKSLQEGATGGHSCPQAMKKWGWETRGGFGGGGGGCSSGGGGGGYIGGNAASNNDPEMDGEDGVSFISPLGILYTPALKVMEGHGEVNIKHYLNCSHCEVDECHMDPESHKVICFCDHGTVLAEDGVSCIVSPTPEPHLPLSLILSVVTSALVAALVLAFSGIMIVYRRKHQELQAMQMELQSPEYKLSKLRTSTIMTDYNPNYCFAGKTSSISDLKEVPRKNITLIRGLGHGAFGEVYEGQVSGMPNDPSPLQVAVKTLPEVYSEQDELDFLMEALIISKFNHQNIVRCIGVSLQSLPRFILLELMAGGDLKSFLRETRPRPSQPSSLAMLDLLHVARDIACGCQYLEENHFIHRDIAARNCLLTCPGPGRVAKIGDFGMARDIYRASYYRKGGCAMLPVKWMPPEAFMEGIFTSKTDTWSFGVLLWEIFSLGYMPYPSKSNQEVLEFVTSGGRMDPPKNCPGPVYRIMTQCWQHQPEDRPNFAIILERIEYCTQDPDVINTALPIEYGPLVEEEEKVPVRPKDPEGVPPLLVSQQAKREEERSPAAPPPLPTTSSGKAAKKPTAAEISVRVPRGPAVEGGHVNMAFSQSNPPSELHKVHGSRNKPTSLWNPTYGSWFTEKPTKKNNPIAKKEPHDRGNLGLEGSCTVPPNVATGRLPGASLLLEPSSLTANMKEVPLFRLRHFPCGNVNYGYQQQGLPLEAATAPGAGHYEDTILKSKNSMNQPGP
Protein kinase C eta type (Homo sapiens), sequence (P24723 whole entry): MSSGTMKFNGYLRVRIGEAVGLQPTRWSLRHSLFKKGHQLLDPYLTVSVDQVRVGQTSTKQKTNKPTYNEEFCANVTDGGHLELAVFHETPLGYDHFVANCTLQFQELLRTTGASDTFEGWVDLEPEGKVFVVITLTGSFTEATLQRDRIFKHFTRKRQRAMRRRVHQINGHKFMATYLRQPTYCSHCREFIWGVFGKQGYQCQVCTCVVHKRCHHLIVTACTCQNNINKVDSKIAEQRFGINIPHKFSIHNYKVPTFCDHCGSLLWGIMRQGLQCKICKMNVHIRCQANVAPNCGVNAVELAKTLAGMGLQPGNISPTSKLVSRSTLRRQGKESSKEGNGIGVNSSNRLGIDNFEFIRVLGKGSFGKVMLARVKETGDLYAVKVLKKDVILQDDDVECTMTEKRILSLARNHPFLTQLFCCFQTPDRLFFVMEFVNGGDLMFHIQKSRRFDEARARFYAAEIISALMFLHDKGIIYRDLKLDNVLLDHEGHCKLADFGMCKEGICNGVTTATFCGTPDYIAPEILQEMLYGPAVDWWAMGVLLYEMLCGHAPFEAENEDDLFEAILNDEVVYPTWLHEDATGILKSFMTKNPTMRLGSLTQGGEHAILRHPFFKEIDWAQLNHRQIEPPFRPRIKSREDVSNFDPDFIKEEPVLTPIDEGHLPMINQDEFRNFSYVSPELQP
Dual specificity tyrosine-phosphorylation-regulated kinase 2 (Homo sapiens), sequence (Q92630 whole entry): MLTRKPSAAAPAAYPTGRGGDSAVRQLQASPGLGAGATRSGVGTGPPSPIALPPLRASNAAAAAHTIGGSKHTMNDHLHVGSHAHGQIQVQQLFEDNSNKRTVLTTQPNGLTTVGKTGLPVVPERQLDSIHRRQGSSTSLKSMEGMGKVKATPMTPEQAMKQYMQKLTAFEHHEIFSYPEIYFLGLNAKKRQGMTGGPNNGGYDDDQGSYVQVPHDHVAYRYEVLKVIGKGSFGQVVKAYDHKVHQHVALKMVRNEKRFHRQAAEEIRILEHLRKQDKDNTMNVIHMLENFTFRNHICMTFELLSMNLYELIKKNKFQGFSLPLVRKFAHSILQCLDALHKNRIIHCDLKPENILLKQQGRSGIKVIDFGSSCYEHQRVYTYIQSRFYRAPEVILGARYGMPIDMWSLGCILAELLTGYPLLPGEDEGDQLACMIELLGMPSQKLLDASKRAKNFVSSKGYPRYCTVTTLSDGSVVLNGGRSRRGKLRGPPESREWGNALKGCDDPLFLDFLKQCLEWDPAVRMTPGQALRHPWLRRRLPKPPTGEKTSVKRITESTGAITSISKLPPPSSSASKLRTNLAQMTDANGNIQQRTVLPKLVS
Epidermal growth factor receptor (Homo sapiens), P00533 [UNDEFINED MUTATION], sequence (P00533 whole entry, looked up, change not shown): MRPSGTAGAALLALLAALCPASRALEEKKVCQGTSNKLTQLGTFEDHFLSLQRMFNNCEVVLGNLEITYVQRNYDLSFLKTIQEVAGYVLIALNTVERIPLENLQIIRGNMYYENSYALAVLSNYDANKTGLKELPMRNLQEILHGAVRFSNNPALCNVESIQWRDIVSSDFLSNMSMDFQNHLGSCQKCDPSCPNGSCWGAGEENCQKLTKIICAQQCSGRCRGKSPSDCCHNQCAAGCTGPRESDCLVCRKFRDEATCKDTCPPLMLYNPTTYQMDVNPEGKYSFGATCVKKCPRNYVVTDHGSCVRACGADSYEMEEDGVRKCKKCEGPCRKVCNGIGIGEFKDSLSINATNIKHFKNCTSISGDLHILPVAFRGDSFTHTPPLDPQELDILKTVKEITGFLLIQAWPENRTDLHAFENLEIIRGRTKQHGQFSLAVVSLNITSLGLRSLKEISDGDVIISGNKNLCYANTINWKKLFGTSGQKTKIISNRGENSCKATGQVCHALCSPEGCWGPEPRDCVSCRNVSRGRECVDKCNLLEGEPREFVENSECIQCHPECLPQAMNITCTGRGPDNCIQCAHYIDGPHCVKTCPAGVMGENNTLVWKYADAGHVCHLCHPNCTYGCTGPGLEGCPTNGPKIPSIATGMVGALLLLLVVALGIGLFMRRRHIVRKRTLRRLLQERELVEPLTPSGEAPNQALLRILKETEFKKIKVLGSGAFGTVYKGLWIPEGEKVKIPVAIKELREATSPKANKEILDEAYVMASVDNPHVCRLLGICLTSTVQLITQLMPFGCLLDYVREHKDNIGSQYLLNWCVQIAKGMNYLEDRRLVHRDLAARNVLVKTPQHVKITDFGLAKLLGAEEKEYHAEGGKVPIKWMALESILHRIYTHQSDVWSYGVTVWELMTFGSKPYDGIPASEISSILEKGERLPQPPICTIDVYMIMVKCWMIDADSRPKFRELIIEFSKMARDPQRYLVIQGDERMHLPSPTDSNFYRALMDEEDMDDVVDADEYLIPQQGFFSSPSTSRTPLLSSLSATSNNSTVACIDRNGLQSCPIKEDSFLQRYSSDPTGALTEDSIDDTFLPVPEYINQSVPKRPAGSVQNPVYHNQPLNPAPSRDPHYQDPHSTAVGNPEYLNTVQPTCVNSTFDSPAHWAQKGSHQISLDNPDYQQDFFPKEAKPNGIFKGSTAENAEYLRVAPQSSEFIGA

Q: With `NS(=O)(=O)c1cc(NC(=O)C2(c3ccccc3Cl)CC2)ccc1Oc1cccc(Cl)c1` [BAY-207] as the molecule, how does the residual activity [1] read?
A: The residual activity was 89%.

Q: And the residual activity [2]?
A: Its residual activity is 100%.

Q: And the residual activity [3]?
A: Its residual activity is 81%.

Q: And the residual activity [4]?
A: The residual activity was 86%.

Q: What about the inhibition (Rattus norvegicus) of the same molecule?
A: Its inhibition is 87.5%.

Q: And the residual activity [5]?
A: The residual activity was 73%.

Q: And the residual activity [6]?
A: The residual activity was 90%.

Q: What about the residual activity [7] of the same molecule?
A: The residual activity was 85%.

Q: And the residual activity [8]?
A: Its residual activity is 69%.

Q: What about the inhibition [9] of the same molecule?
A: The inhibition was 17.9%.

Q: What about the residual activity [10] of the same molecule?
A: Its residual activity is 100%.

Q: What about the residual activity [11] of the same molecule?
A: The residual activity was 100%.

Q: And the residual activity [12]?
A: The residual activity was 87%.

Q: What about the residual activity [13] of the same molecule?
A: The residual activity was 76%.

Q: What about the residual activity [14] of the same molecule?
A: Its residual activity is 90%.

Q: What about the residual activity [15] of the same molecule?
A: Its residual activity is 100%.

Q: And the residual activity [16]?
A: The residual activity was 99%.

Q: What about the residual activity [17] of the same molecule?
A: Its residual activity is 62%.

Q: And the residual activity [18]?
A: Its residual activity is 100%.

Q: And the residual activity [19]?
A: Its residual activity is 100%.

Q: And the residual activity [20]?
A: The residual activity was 100%.

Q: And the residual activity [21]?
A: The residual activity was 69%.

Q: And the residual activity [22]?
A: Its residual activity is 72%.

Q: What about the inhibition [23] of the same molecule?
A: The inhibition was -3.09%.

Q: And the residual activity [24]?
A: Its residual activity is 82%.

Q: What about the residual activity [25] of the same molecule?
A: The residual activity was 79%.

Q: And the residual activity [26]?
A: The residual activity was 100%.

Q: What about the residual activity [27] of the same molecule?
A: The residual activity was 88%.

Q: What about the residual activity [28] of the same molecule?
A: Its residual activity is 100%.

Q: And the residual activity [29]?
A: The residual activity was 88%.

Q: What about the residual activity [30] of the same molecule?
A: Its residual activity is 100%.

Q: And the residual activity [31]?
A: The residual activity was 88%.

Q: What about the residual activity [32] of the same molecule?
A: Its residual activity is 100%.

Q: And the residual activity [33]?
A: Its residual activity is 89%.

Q: What about the residual activity [34] of the same molecule?
A: Its residual activity is 98%.

Q: What about the residual activity [35] of the same molecule?
A: The residual activity was 100%.

Q: And the residual activity [36]?
A: The residual activity was 100%.

Q: And the residual activity [37]?
A: Its residual activity is 98%.

Q: And the residual activity [38]?
A: The residual activity was 100%.

Q: And the residual activity [39]?
A: The residual activity was 43%.

Q: What about the residual activity [40] of the same molecule?
A: The residual activity was 74%.

Q: What about the residual activity [41] of the same molecule?
A: The residual activity was 81%.

Q: What about the residual activity [42] of the same molecule?
A: Its residual activity is 100%.

Q: What about the residual activity [43] of the same molecule?
A: The residual activity was 90%.

Q: What about the inhibition [44] of the same molecule?
A: Its inhibition is 82%.

Q: What does the source list for `NS(=O)(=O)c1cc(NC(=O)Cc2ccccc2)ccc1Oc1cccc(Cl)c1` [BAY-1797]?
A: residual activity [1]: 100%; residual activity [2]: 100%; residual activity [3]: 100%; residual activity [4]: 62%; inhibition (Rattus norvegicus): 5.06%; residual activity [5]: 86%; residual activity [6]: 92%; residual activity [7]: 76%; residual activity [8]: 65%; inhibition [9]: 15.7%; residual activity [10]: 93%; residual activity [11]: 88%; residual activity [12]: 94%; residual activity [13]: 87%; residual activity [14]: 95%; residual activity [15]: 77%; residual activity [16]: 98%; residual activity [17]: 100%; residual activity [18]: 100%; residual activity [19]: 90%; residual activity [20]: 100%; residual activity [21]: 90%; residual activity [22]: 83%; inhibition [23]: 14.3%; residual activity [24]: 88%; residual activity [25]: 88%; residual activity [26]: 87%; residual activity [27]: 97%; residual activity [28]: 67%; residual activity [29]: 62%; residual activity [30]: 87%; residual activity [31]: 88%; residual activity [32]: 100%; residual activity [33]: 100%; residual activity [34]: 96%; residual activity [35]: 100%; residual activity [36]: 100%; residual activity [37]: 91%; residual activity [38]: 100%; residual activity [39]: 100%; residual activity [40]: 100%; residual activity [41]: 92%; residual activity [42]: 89%; residual activity [43]: 92%; inhibition [44]: 59.5%
